Source: patent publication US20090156582A1, “Pyrazole Compound” (priority 2005, published 2009)

Target: T1, recombinant GSK3β enzyme (human GSK3β) (Homo sapiens, UniProt P49841)
T1 construct: FLAG (N); made in house; host or cells: Sf-21 insect cells, recombinant baculovirus (pFASTBAC1 / BAC-TO-BAC)
Assay: Measurement of GSK3β inhibitory activity
Format: biochemical
Settings: glycogen synthase peptide substrate, Kinase Glo luminescence, read-out: IC50 (concentration of test compound needed for 50% inhibition of luminescent intensity), GSK3β inhibitory activity
Text: Human GSK3β gene was cloned by a PCR method using a primer set:
prepared using human brain cDNA (Clontech; trade name: QUICK-Clone cDNA) as a template and in reference to the base sequence of GSK3β gene registered in GenBank under Accession Number NM_002093.
PCR was done according to the protocol attached to KOD plus DNA polymerase (Toyo Boseki Kabushiki Kaisha). The obtained PCR product was electrophoresed on agarose gel (1%), and 1.2 kb of DNA fragment including GSK3β gene was collected from the gel and then digested with restriction enzymes EcoR I and Sal I. The restriction enzyme-treated DNA was electrophoresed on agarose gel (1%). The obtained DNA fragment was collected, and ligated to the plasmid pFASTBAC1 (Invitrogen), which had been digested with restriction enzyme EcoR I and Sal I, to produce expression plasmid pFB-GSK3B. The base sequence of insertion fragment was confirmed to find that it corresponded to the objective sequence. In addition, virus stock BAC-GSK3B of recombinant Baculovirus was prepared using BAC-TO-BAC Baculovirus Expression System (Invitrogen).
Sf-21 cells (Invitrogen) were seeded on Sf-900 II SFM medium (Invitrogen)(150 ml) containing 10% fetal calf serum at 1×10^6 cells/ml, and cultured at 27° C. for 24 hr. The virus stock […] obtained above of recombinant Baculovirus was added by 150 μl to the obtained culture medium, and the cells were cultured for another 60 hr. The culture medium was centrifuged (3000 rpm, 10 min) to separate the cells, and the cells were washed once with PBS. The cells were suspended in 10 ml of cell lysis buffer (25 mM HEPES (pH 7.5), 1% Triton X, 130 mM sodium chloride, 1 mM EDTA, 1 mM Dithiothreitol, 25 mM β-glycerophosphate, Protease inhibitor Complete (Boehringer), 1 mM Sodium orthovanadate), treated 4 times using a homogenizer (POLYTRON) at 20000 rpm for 30 sec to disrupt the cells. The disrupted solution of cells was centrifuged (40000 rpm, 45 min.), and GSK3β was purified from the obtained supernatant using Anti-FLAG M2 Affinity Gel (Sigma Ltd.).
10 μl of ATP solution (2.5 μM ATP) was added to the obtained mixture, and the mixture was reacted at room temperature for 30 min. Kinase Glo Reagent (Promega) (50 μl) was added to the reaction solution to stop the reaction. After reaction at room temperature for 10 min, the luminescent intensity was measured using ARVO multilabel counter (PerkinElmer Life Sciences). The concentrations of the test compounds needed for 50% inhibition of luminescent intensity (IC50 value) were calculated by PRISM 3.0 (GraphPad Software).

T1 sequence (P49841 whole entry): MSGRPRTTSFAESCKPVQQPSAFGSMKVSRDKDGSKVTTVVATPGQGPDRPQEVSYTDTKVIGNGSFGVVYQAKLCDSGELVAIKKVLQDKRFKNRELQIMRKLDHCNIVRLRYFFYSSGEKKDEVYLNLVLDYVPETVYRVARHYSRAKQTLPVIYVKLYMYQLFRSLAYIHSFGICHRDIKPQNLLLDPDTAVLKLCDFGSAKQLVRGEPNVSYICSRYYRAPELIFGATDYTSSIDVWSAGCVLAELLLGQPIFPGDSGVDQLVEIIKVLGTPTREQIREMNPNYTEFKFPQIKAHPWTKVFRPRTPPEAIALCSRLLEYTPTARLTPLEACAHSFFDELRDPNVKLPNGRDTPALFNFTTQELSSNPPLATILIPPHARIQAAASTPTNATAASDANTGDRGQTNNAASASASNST

O=C(Nc1c[nH]nc1C(=O)Nc1ccccc1)c1ccccn1 [Example 341, N-(3-(anilinocarbonyl)-1H-pyrazol-4-yl)pyridine-2-carboxamide]
IC50: < 100 nM

O=C(Nc1c[nH]nc1C(=O)NCCCc1ccccc1)c1ccccn1 [Example 342, N-(3-(((3-phenylpropyl)amino)carbonyl)-1H-pyrazol-4-yl)pyridine-2-carboxamide]
IC50: < 100 nM

O=C(Nc1c[nH]nc1C(=O)Nc1cccc(C(F)(F)F)c1)c1ccccn1 [Example 343, N-(3-(((3-(trifluoromethyl)phenyl)amino)carbonyl)-1H-pyrazol-4-yl)pyridine-2-carboxamide]
IC50: < 100 nM

O=C(Nc1c[nH]nc1C(=O)NC1CCCC1)c1ccccn1 [Example 344, N-(3-((cyclopentylamino)carbonyl)-1H-pyrazol-4-yl)pyridine-2-carboxamide]
IC50: < 100 nM

CC(C)NC(=O)c1n[nH]cc1NC(=O)c1ccccn1 [Example 345, N-(3-((isopropylamino)carbonyl)-1H-pyrazol-4-yl)pyridine-2-carboxamide]
IC50: < 100 nM

CNC(=O)c1n[nH]cc1NC(=O)c1ccccn1 [Example 346, N-(3-((methylamino)carbonyl)-1H-pyrazol-4-yl)pyridine-2-carboxamide]
IC50: < 100 nM

O=C(Nc1c[nH]nc1C(=O)NCc1ccco1)c1ccccn1 [Example 347, N-(3-(((2-furylmethyl)amino)carbonyl)-1H-pyrazol-4-yl)pyridine-2-carboxamide]
IC50: < 100 nM

O=C(Nc1c[nH]nc1C(=O)NCCc1c[nH]c2ccccc12)c1ccccn1 [Example 348, N-(3-(((2-(1H-indol-3-yl)ethyl)amino)carbonyl)-1H-pyrazol-4-yl)pyridine-2-carboxamide]
IC50: < 100 nM

O=C(Nc1c[nH]nc1C(=O)NC1CCCCC1)c1ccccn1 [Example 349, N-(3-((cyclohexylamino)carbonyl)-1H-pyrazol-4-yl)pyridine-2-carboxamide]
IC50: < 100 nM

N#Cc1ccc(NCCNC(=O)c2n[nH]cc2NC(=O)c2ccccn2)nc1 [Example 350]
IC50: < 100 nM

O=C(Nc1c[nH]nc1C(=O)NCCc1ccc(Br)cc1)c1ccccn1 [Example 351, N-(3-(((2-(4-bromophenyl)ethyl)amino)carbonyl)-1H-pyrazol-4-yl)pyridine-2-carboxamide]
IC50: < 100 nM

O=C(Nc1c[nH]nc1C(=O)NCCc1cccnc1)c1ccccn1 [Example 352, N-(3-(((2-pyridin-3-ylethyl)amino)carbonyl)-1H-pyrazol-4-yl)pyridine-2-carboxamide]
IC50: < 100 nM

CC(C)OCCCNC(=O)c1n[nH]cc1NC(=O)c1ccccn1 [Example 353, N-(3-(((3-isopropoxypropyl)amino)carbonyl)-1H-pyrazol-4-yl)pyridine-2-carboxamide]
IC50: < 100 nM

O=C(Nc1c[nH]nc1C(=O)NCc1ccc(-c2ccccc2)cc1)c1ccccn1 [Example 354, N-(3-(((biphenyl-4-ylmethyl)amino)carbonyl)-1H-pyrazol-4-yl)pyridine-2-carboxamide]
IC50: < 100 nM

O=C(Nc1c[nH]nc1C(=O)NCCOc1ccccc1)c1ccccn1 [Example 355, N-(3-(((2-phenoxyethyl)amino)carbonyl)-1H-pyrazol-4-yl)pyridine-2-carboxamide]
IC50: < 100 nM

COCCNC(=O)c1n[nH]cc1NC(=O)c1ccccn1 [Example 356, N-(3-(((2-methoxyethyl)amino)carbonyl)-1H-pyrazol-4-yl)pyridine-2-carboxamide]
IC50: < 100 nM

CC(C)OCCNC(=O)c1n[nH]cc1NC(=O)c1ccccn1 [Example 357, N-(3-(((2-isopropoxyethyl)amino)carbonyl)-1H-pyrazol-4-yl)pyridine-2-carboxamide]
IC50: < 100 nM

N#CCCNC(=O)c1n[nH]cc1NC(=O)c1ccccn1 [Example 358, N-(3-(((2-cyanoethyl)amino)carbonyl)-1H-pyrazol-4-yl)pyridine-2-carboxamide]
IC50: < 100 nM

O=C(CNC(=O)c1n[nH]cc1NC(=O)c1ccccn1)c1ccccc1 [Example 359, N-(3-(((2-oxo-2-phenylethyl)amino)carbonyl)-1H-pyrazol-4-yl)pyridine-2-carboxamide]
IC50: < 100 nM

O=C(Nc1c[nH]nc1C(=O)NCC(F)(F)F)c1ccccn1 [Example 360, N-(3-(((2,2,2-trifluoroethyl)amino)carbonyl)-1H-pyrazol-4-yl)pyridine-2-carboxamide]
IC50: < 100 nM

O=C(Nc1c[nH]nc1C(=O)NCCSc1ccccc1)c1ccccn1 [Example 361, N-(3-(((2-(phenylthio)ethyl)amino)carbonyl)-1H-pyrazol-4-yl)pyridine-2-carboxamide]
IC50: < 100 nM

O=C(Nc1c[nH]nc1C(=O)NC1CCCC1)c1cccc2c1OCC2 [Example 362, N-cyclopentyl-4-((2,3-dihydro-1-benzofuran-7-ylcarbonyl)amino)-1H-pyrazole-3-carboxamide]
IC50: < 100 nM

Cc1ncccc1C(=O)Nc1c[nH]nc1C(=O)NC1CCCC1 [Example 363, N-(3-((cyclopentylamino)carbonyl)-1H-pyrazol-4-yl)-2-methylnicotinamide]
IC50: < 100 nM

Cc1ccc(C(=O)Nc2c[nH]nc2C(=O)NC2CCCC2)cn1 [Example 364, N-(3-((cyclopentylamino)carbonyl)-1H-pyrazol-4-yl)-6-methylnicotinamide]
IC50: < 100 nM

COc1ncccc1C(=O)Nc1c[nH]nc1C(=O)NC1CCCC1 [Example 365, N-(3-((cyclopentylamino)carbonyl)-1H-pyrazol-4-yl)-2-methoxynicotinamide]
IC50: < 100 nM

O=C(NC1CCCC1)c1n[nH]cc1NC(=O)c1c(F)cccc1F [Example 366, N-cyclopentyl-4-((2,6-difluorobenzoyl)amino)-1H-pyrazole-3-carboxamide]
IC50: < 100 nM

O=C(NC1CCCC1)c1n[nH]cc1NC(=O)C1CCCC1 [Example 367, N-cyclopentyl-4-(cyclopentanecarbonylamino)-1H-pyrazole-3-carboxamide]
IC50: < 100 nM

CCC(CC)C(=O)Nc1c[nH]nc1C(=O)NC1CCCC1 [Example 368, N-cyclopentyl-4-((2-ethylbutanoyl)amino)-1H-pyrazole-3-carboxamide]
IC50: < 100 nM

CC(=O)Nc1cccc(C(=O)Nc2c[nH]nc2C(=O)NCCOc2ccccc2)c1 [Example 369, 4-((3-(acetylamino)benzoyl)amino)-N-(2-phenoxyethyl)-1H-pyrazole-3-carboxamide]
IC50: < 100 nM

COCCNC(=O)c1n[nH]cc1NC(=O)c1cccc(NC(C)=O)c1 [Example 370, 4-((3-(acetylamino)benzoyl)amino)-N-(2-methoxyethyl)-1H-pyrazole-3-carboxamide]
IC50: < 100 nM

CC(=O)Nc1cccc(C(=O)Nc2c[nH]nc2C(=O)NCCOC(C)C)c1 [Example 371, 4-((3-(acetylamino)benzoyl)amino)-N-(2-isopropoxyethyl)-1H-pyrazole-3-carboxamide]
IC50: < 100 nM

CC(=O)Nc1cccc(C(=O)Nc2c[nH]nc2C(=O)NCCC#N)c1 [Example 372, 4-((3-(acetylamino)benzoyl)amino)-N-(2-cyanoethyl)-1H-pyrazole-3-carboxamide]
IC50: < 100 nM

CC(=O)Nc1cccc(C(=O)Nc2c[nH]nc2C(=O)NCCN(C)C)c1 [Example 373, 4-((3-(acetylamino)benzoyl)amino)-N-(2-(dimethylamino)ethyl)-1H-pyrazole-3-carboxamide]
IC50: < 100 nM

CC(=O)Nc1cccc(C(=O)Nc2c[nH]nc2C(=O)NCC(=O)c2ccccc2)c1 [Example 374, 4-((3-(acetylamino)benzoyl)amino)-N-(2-oxo-2-phenylethyl)-1H-pyrazole-3-carboxamide]
IC50: < 100 nM

CC(=O)Nc1cccc(C(=O)Nc2c[nH]nc2C(=O)NCC(F)(F)F)c1 [Example 375, 4-((3-(acetylamino)benzoyl)amino)-N-(2,2,2-trifluoroethyl)-1H-pyrazole-3-carboxamide]
IC50: < 100 nM

CC(=O)Nc1cccc(C(=O)Nc2c[nH]nc2C(=O)NCCSc2ccccc2)c1 [Example 376, 4-((3-(acetylamino)benzoyl)amino)-N-(2-(phenylthio)ethyl)-1H-pyrazole-3-carboxamide]
IC50: < 100 nM

Cc1[nH]nc(C(=O)NC2CCCC2)c1NC(=O)c1ccccc1 [Example 378, 4-(benzoylylamino)-N-cyclopentyl-5-methyl-1H-pyrazole-3-carboxamide]
IC50: 1000 nM
